The record followed here is patent US11840686B2, “Modulation of prekallikrein (PKK) expression” (Ionis Pharmaceuticals, Inc., priority 2013, dated 2023).

For the data set, the system named is human PKK mRNA. Put plainly: Antisense inhibition of human PKK mRNA in HepaRG cells, 1,000 nM, MOE/deoxy/cEt oligonucleotides (Example 3). The format is cell-based. Put shortly: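 HepaRG cells at 20,000 per well electroporated with 1,000 nM 16-mer MOE/cEt/deoxy gapmers (phosphorothioate, 5-methylcytosine). After about 24 h, PKK mRNA measured by qRT-PCR with primer probe set RTS3454, normalized to RIBOGREEN total RNA. Reported as percent inhibition versus untreated cells.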

Setting [1] is: HepaRG cells, electroporation with 1,000 nM antisense oligonucleotide, approx. 24 hours, PKK mRNA by RT-PCR (RTS3454), relative to untreated control cells, Table 26 experiment.
Where [2] appears, read: HepaRG cells, electroporation with 1,000 nM antisense oligonucleotide, approx. 24 hours, PKK mRNA by RT-PCR (RTS3454), relative to untreated control cells, Table 25 experiment.
[3] abbreviates: Table 19, HepaRG cells, electroporation with 1,000 nM antisense oligonucleotide, approximately 24 hours, PKK mRNA by RT-PCR (RTS3454), relative to untreated control cells.
Where [4] appears, read: Table 28, HepaRG cells, 1,000 nM antisense oligonucleotide, human PKK mRNA.
The mark [5] stands for this setting: Table 20, HepaRG cells, electroporation with 1,000 nM antisense oligonucleotide, approximately 24 hours, PKK mRNA by RT-PCR (RTS3454), relative to untreated control cells.
Where [6] appears, read: Table 22 experiment, HepaRG cells, electroporation with 1,000 nM antisense oligonucleotide, approx. 24 hours, PKK mRNA by RT-PCR (RTS3454), relative to untreated control cells.
Setting [7] is: HepaRG cells, electroporation with 1,000 nM antisense oligonucleotide, approximately 24 hours, primer probe set RTS3454, relative to untreated control cells, experiment of Table 23.
Where [8] appears, read: Table 30, human PKK mRNA, HepaRG cells, 1,000 nM antisense oligonucleotide.
The mark [9] stands for this setting: Table 27, HepaRG cells, 1,000 nM antisense oligonucleotide, human PKK mRNA.
[10] abbreviates: HepaRG cells, 1,000 nM antisense oligonucleotide, Table 29.
[11] abbreviates: Table 21 experiment, HepaRG cells, electroporation with 1,000 nM antisense oligonucleotide, approx. 24 hours, PKK mRNA by RT-PCR (RTS3454), relative to untreated control cells.
Setting [12] is: PKK mRNA, HepaRG cells, 1,000 nM antisense oligonucleotide, Table 31.

Strand notation (5' to 3'): a small letter for the sugar, then the base; units joined by * are phosphorothioate-linked, units joined directly phosphodiester-linked; [ ] holds rarer units or linkages, { } end groups; capitals alone tell only the bases. e = 2'-O-(2-methoxyethyl) (MOE); k = constrained ethyl (cEt); [5mC] = 5-methylcytosine; d = 2'-deoxy (DNA)

By % inhibition is commonly meant the percentage by which the read-out fell short of the control. A low value points to a response near the control. As for “548260 (antisense eA*eG*kG*dA*dG*dT*dT*dT*dG*dT*d[5mC]*dA*dG*kA*kA*e[5mC]) [compound 548260]”, the “% inhibition” value under setting [1] is recorded as 28%.

As to “548198 (eA*e[5mC]*kT*dG*d[5mC]*dA*dG*dG*d[5mC]*dA*dA*dT*dA*kT*kT*eT; antisense) [compound 548198]”, the “% inhibition” value under setting [2] was found to be 49%.

For the substance “548300 (eG*e[5mC]*k[5mC]*d[5mC]*dA*dT*dG*dG*dT*dG*dA*dA*dT*k[5mC]*kT*eG; antisense) [compound 548300]”, the “% inhibition” value under setting [1] was determined as 53%.

For “548083 (eA*eG*kG*dG*dA*d[5mC]*d[5mC]*dA*d[5mC]*d[5mC]*dT*dG*dA*kA*kT*e[5mC]; antisense) [compound 548083]”, the “% inhibition” value under setting [3] amounted to 0%.

As for “548528 (antisense eT*eG*k[5mC]*dA*dG*dT*dG*dG*dT*d[5mC]*dA*dA*dG*k[5mC]*kA*eT) [compound 548528]”, under setting [4], the “% inhibition” value is 32%.

“548218 (eT*e[5mC]*k[5mC]*dT*dG*dT*dG*d[5mC]*dA*dT*dA*dG*dA*k[5mC]*k[5mC]*e[5mC]; antisense) [compound 548218]”: under setting [2], the “% inhibition” value worked out at 59%.

Consider “548149 (eG*eA*k[5mC]*dA*dT*dT*dG*dT*d[5mC]*d[5mC]*dT*d[5mC]*dA*kG*k[5mC]*eA; antisense) [compound 548149]”, for which the “% inhibition” value under setting [3] is reported as 39%.

Turning to “547886 (e[5mC]*eG*kG*dT*dA*d[5mC]*dT*d[5mC]*dT*dG*d[5mC]*d[5mC]*dT*kT*kG*eT; antisense) [compound 547886]”, the “% inhibition” value runs as follows: under setting [5], 97%; under setting [6], 89%.

As to “547990 (antisense eA*e[5mC]*kT*dG*dA*d[5mC]*dA*dG*d[5mC]*dG*dA*dA*dT*k[5mC]*kA*eT) [compound 547990]”, under setting [7], the “% inhibition” value is given as 58%.

In the case of “548389 (eT*eT*kG*dA*dG*dG*dA*dA*dA*dG*dA*d[5mC]*d[5mC]*kT*kG*e[5mC]; antisense) [compound 548389]”, the “% inhibition” value under setting [8] stood at 11%.

For the substance “548002 (antisense eA*eA*k[5mC]*d[5mC]*dA*dG*dA*dG*d[5mC]*dT*d[5mC]*d[5mC]*d[5mC]*kT*kT*eG) [compound 548002]”, the “% inhibition” value (HepaRG cells, electroporation with 1,000 nM antisense oligonucleotide, approximately 24 hours, primer probe set RTS3454, relative to untreated control cells, experiment of Table 24) turned out to be 56%.

For the substance “547917 (eA*e[5mC]*k[5mC]*d[5mC]*dT*dG*dG*d[5mC]*dA*dA*d[5mC]*dA*dT*k[5mC]*k[5mC]*eA; antisense) [compound 547917]”, the “% inhibition” value reads like this: under setting [5], 33%; under setting [6], 54%.

Turning to “547976 (antisense e[5mC]*e[5mC]*kA*dA*dA*dG*dT*d[5mC]*dA*dA*d[5mC]*dT*d[5mC]*k[5mC]*k[5mC]*eG) [compound 547976]”, the “% inhibition” value under setting [7] amounted to 49%.

For “548320 (eG*e[5mC]*kA*d[5mC]*dA*d[5mC]*dA*dG*dA*d[5mC]*dT*dT*dG*k[5mC]*k[5mC]*e[5mC]; antisense) [compound 548320]”, under setting [9], the “% inhibition” value was 0%.

For “548168 (eT*eT*kG*d[5mC]*dG*dA*d[5mC]*d[5mC]*dT*d[5mC]*dG*d[5mC]*dA*kT*kT*eG; antisense) [compound 548168]”, the “% inhibition” value under setting [2] amounted to 61%.

As to “548589 (eT*e[5mC]*kT*dG*dT*dT*dA*d[5mC]*d[5mC]*dT*dT*dG*dA*kG*kG*eA; antisense) [compound 548589]”, the “% inhibition” value under setting [10] was determined as 40%.

“547822 (eG*e[5mC]*kA*dA*d[5mC]*d[5mC]*dA*dA*dA*d[5mC]*d[5mC]*dT*dT*kT*kT*e[5mC]; antisense) [compound 547822]”: under setting [11], the “% inhibition” value is given as 71%.

For “548623 (antisense eG*e[5mC]*kT*dG*dT*d[5mC]*dA*d[5mC]*dT*dT*dA*dA*dG*k[5mC]*k[5mC]*eA) [compound 548623]”, the “% inhibition” value under setting [12] came to 16%.

Consider “548313 (eG*e[5mC]*k[5mC]*dT*dT*dT*dG*dA*dG*dG*dG*dA*dG*kT*kG*eG; antisense) [compound 548313]”, for which, under setting [9], the “% inhibition” value turned out to be 35%.

With “548656 (antisense eT*eT*kA*d[5mC]*dA*dA*d[5mC]*dA*dG*dA*d[5mC]*d[5mC]*d[5mC]*kA*kG*eG) [compound 548656]”, the “% inhibition” value under setting [12] amounted to 35%.

For the substance “548489 (antisense eT*eT*k[5mC]*d[5mC]*d[5mC]*d[5mC]*dA*dG*dA*dG*dG*dT*dG*kA*kT*eA) [compound 548489]”, the “% inhibition” value under setting [4] is recorded as 16%.

As for “548406 (eT*e[5mC]*kT*dA*dG*dA*dG*dG*d[5mC]*d[5mC]*dG*d[5mC]*d[5mC]*kT*kG*e[5mC]; antisense) [compound 548406]”, the “% inhibition” value under setting [8] came to 0%.

Take “547842 (antisense eG*eA*kT*dG*dA*d[5mC]*d[5mC]*dA*d[5mC]*dA*dT*dT*dG*k[5mC]*kT*eT) [compound 547842]”: under setting [11], the “% inhibition” value stood at 10%.

With “548586 (eT*e[5mC]*k[5mC]*dA*dA*d[5mC]*dT*dA*d[5mC]*dA*dG*dG*dA*k[5mC]*kT*e[5mC]; antisense) [compound 548586]”, under setting [10], the “% inhibition” value was found to be 39%.

Consider “548653 (antisense eT*e[5mC]*kG*dG*d[5mC]*dT*d[5mC]*d[5mC]*dT*dG*dG*d[5mC]*dA*kG*k[5mC]*eA) [compound 548653]”, for which, under setting [12], the “% inhibition” value was found to be 46%.

In the case of “547818 (eG*eA*kT*dT*dG*dA*dA*d[5mC]*dT*dT*dG*d[5mC]*dT*kG*kG*eA; antisense) [compound 547818]”, the “% inhibition” value under setting [11] worked out at 4%.

On to “547980 (antisense eA*eA*kG*dT*d[5mC]*dT*d[5mC]*dT*dT*dG*dG*d[5mC]*dA*kA*kA*e[5mC]) [compound 547980]”, for which the “% inhibition” value under setting [7] is recorded as 54%.

In the case of “548526 (antisense e[5mC]*eT*kA*dA*dG*d[5mC]*dT*dG*dT*dG*dT*d[5mC]*dT*k[5mC]*kA*eT) [compound 548526]”, the “% inhibition” value under setting [4] was determined as 26%.

Regarding “547799 (eG*eA*kA*dG*d[5mC]*dT*dA*d[5mC]*dA*dT*d[5mC]*d[5mC]*d[5mC]*k[5mC]*kA*e[5mC]; antisense) [compound 547799]”, under setting [11], the “% inhibition” value is 41%.

As for “548569 (eA*e[5mC]*kT*d[5mC]*dA*dT*dT*dG*dG*dT*d[5mC]*dT*dA*k[5mC]*kA*eG; antisense) [compound 548569]”, under setting [10], the “% inhibition” value is 41%.

For “547832 (eA*e[5mC]*kT*dG*d[5mC]*dA*d[5mC]*d[5mC]*dT*dG*dT*dT*d[5mC]*kG*kA*eT; antisense) [compound 547832]”, the “% inhibition” value under setting [11] is recorded as 59%.

As for “548243 (eA*eT*kG*d[5mC]*dA*dT*dA*d[5mC]*dT*d[5mC]*dG*d[5mC]*d[5mC]*kT*kT*eT; antisense) [compound 548243]”, the “% inhibition” value under setting [1] came out at 0%.

Regarding “548366 (antisense eA*eG*k[5mC]*dA*dA*dG*d[5mC]*dT*dA*dA*dG*dT*dG*kA*kG*eT) [compound 548366]”, under setting [9], the “% inhibition” value came to 5%.

Take “548154 (eG*eT*kG*d[5mC]*dT*dG*dA*dA*dA*dG*d[5mC]*dG*dG*kG*k[5mC]*eT; antisense) [compound 548154]”: the “% inhibition” value under setting [2] is on record as 7%.

With “548362 (antisense eG*eA*k[5mC]*dA*dA*d[5mC]*d[5mC]*d[5mC]*dA*dT*d[5mC]*dA*dG*kT*kT*eG) [compound 548362]”, under setting [9], the “% inhibition” value amounted to 33%.

Turning to “548658 (antisense eG*eA*kA*dG*dT*dT*d[5mC]*d[5mC]*dT*dG*dT*dG*dT*k[5mC]*kT*eT) [compound 548658]”, the “% inhibition” value under setting [12] was found to be 11%.

For the substance “547829 (eA*e[5mC]*k[5mC]*dT*dG*dT*dT*d[5mC]*dG*dA*dT*dG*dT*kA*k[5mC]*eT; antisense) [compound 547829]”, the “% inhibition” value under setting [11] is given as 59%.

As for “547950 (eG*eG*kT*dG*dT*dT*dT*dT*d[5mC]*dT*dT*dG*dA*kG*kG*eA; antisense) [compound 547950]”, under setting [7], the “% inhibition” value amounted to 49%.

In the case of “548086 (antisense e[5mC]*eT*kA*dA*dG*dG*dG*dA*d[5mC]*d[5mC]*dA*d[5mC]*d[5mC]*kT*kG*eA) [compound 548086]”, under setting [3], the “% inhibition” value is given as 36%.

For “547967 (antisense eG*eG*k[5mC]*dA*dG*dG*dG*dT*dT*d[5mC]*dA*dG*dG*kT*kA*eA) [compound 547967]”, under setting [7], the “% inhibition” value is recorded as 25%.

As for “548165 (e[5mC]*eG*kA*d[5mC]*d[5mC]*dT*d[5mC]*dG*d[5mC]*dA*dT*dT*dG*kT*k[5mC]*eA; antisense) [compound 548165]”, under setting [2], the “% inhibition” value is on record as 53%.

As to “548284 (antisense e[5mC]*e[5mC]*k[5mC]*d[5mC]*d[5mC]*dT*dG*dT*dA*dG*dT*dT*dG*kG*k[5mC]*eT) [compound 548284]”, under setting [1], the “% inhibition” value amounted to 35%.

With “547878 (antisense e[5mC]*eA*kA*d[5mC]*dA*d[5mC]*dT*dG*d[5mC]*dT*dA*dA*d[5mC]*k[5mC]*kT*eT) [compound 547878]”, the “% inhibition” value under setting [6] came out at 62%.

On to “548471 (eG*e[5mC]*kG*dG*dA*dA*dA*dA*d[5mC]*dT*dG*dG*d[5mC]*k[5mC]*kG*eT; antisense) [compound 548471]”, for which, under setting [4], the “% inhibition” value worked out at 17%.
